What all share (assay type): functional
Assay [1] deals with Brassica rapa subsp. oleifera. The assay is described as follows: Herbicidal activity against Brassica rapa subsp. oleifera assessed as inhibition of root growth at 100 ug/ml after 65 hr by rape cup test. Particulars: read-out: GI.
For assay [2], the system named is Echinochloa crus-galli. As to the kind of experiment: Herbicidal activity against Echinochloa crus-galli (barnyard grass) plants assessed as inhibition of seedling growth at 100 ug/ml after 65 hr by barnyard cup test. Conditions: read-out: GI.
Assay [3] has as its system Echinochloa crus-galli. As to the kind of experiment: Herbicidal activity against Echinochloa crus-galli (barnyard grass) plants assessed as inhibition of seedling growth at 1000 ug/ml after 65 hr by barnyard cup test. Particulars: read-out: GI.
Assay [4] has as its system Brassica rapa subsp. oleifera. The assay is described as follows: Herbicidal activity against Brassica rapa subsp. oleifera assessed as inhibition of root growth at 1000 ug/ml after 65 hr by rape cup test. Particulars: read-out: GI.
The subject of assay [5] is Brassica rapa subsp. oleifera. The assay is described as follows: Herbicidal activity against Brassica rapa subsp. oleifera assessed as inhibition of root growth at 10 ug/ml after 65 hr by rape cup test. Conditions: read-out: GI.
Assay [6] relates to Digitaria sanguinalis. The assay is described as follows: Herbicidal activity against Digitaria sanguinalis (hairy crabgrass) assessed as germination rate at 1000 ug/ml measured on first day post dose (reference value: 0%).
Assay [7] deals with Digitaria sanguinalis. As to the kind of experiment: Herbicidal activity against Digitaria sanguinalis (hairy crabgrass) assessed as germination rate at 1000 ug/ml measured on second day post dose (reference value: 100%).
In assay [8] the test system is Paraixeris denticulata. As to the kind of experiment: Herbicidal activity against Paraixeris denticulata assessed as germination rate at 1000 ug/ml measured on fourth day post dose (reference value: 100%).
The test system of assay [9] is Paraixeris denticulata. The assay is described as follows: Herbicidal activity against Paraixeris denticulata assessed as germination rate at 1000 ug/ml measured on second day post dose (reference value: 76.7 +/- 0.3%).
Assay [10] relates to Echinochloa crus-galli. The assay is described as follows: Herbicidal activity against Echinochloa crus-galli (barnyard grass) plants assessed as germination rate at 1000 ug/ml measured on second day post dose (reference value: 100%).
Assay [11] relates to Echinochloa crus-galli. As to the kind of experiment: Herbicidal activity against Echinochloa crus-galli (barnyard grass) plants assessed as germination rate at 1000 ug/ml measured on first day post dose (reference value: 49.1 +/- 1.6%).
For assay [12], the system named is Paraixeris denticulata. The assay is described as follows: Herbicidal activity against Paraixeris denticulata assessed as germination rate at 1000 ug/ml measured on first day post dose (reference value: 30.8 +/- 1.2%).
Assay [13] has as its system Paraixeris denticulata. As to the kind of experiment: Herbicidal activity against Paraixeris denticulata assessed as germination rate at 1000 ug/ml measured on third day post dose (reference value: 97.4 +/- 0.6%).
The subject of assay [14] is Digitaria sanguinalis. As to the kind of experiment: Herbicidal activity against Digitaria sanguinalis (hairy crabgrass) assessed as germination rate at 1000 ug/ml measured on third day post dose (reference value: 100%).

For 27 compounds, inhibition of growth and Activity results are on record in ChEMBL document CHEMBL3046252, “Synthesis and herbicidal potential of substituted aurones” (2012).

With `COc1cc(OC)c2c(c1)O/C(=C\c1cccc(F)c1)C2=O`, the inhibition of growth at 100 µg/mL was 57.8% in assay [1] and 14.4% in assay [2]. Also, the inhibition of growth at 1000 µg/mL in [3] stood at 43.8%; in [4], 82.1%.

Consider `COc1cc(/C=C2\Oc3cc(O)cc(O)c3C2=O)cc(OC)c1OC`, for which the figures for the inhibition of growth at 100 µg/mL in assay [1] and in assay [2] were 0% and 5.2%, respectively. The inhibition of growth at 1000 µg/mL stood at 68.7% in assay [3] and 83.8% in assay [4].

As for `COc1cc(OC)c2c(c1)O/C(=C\c1ccc(F)cc1)C2=O`, in assay [5], the inhibition of growth at 10 µg/mL was 50.6%. In addition, the inhibition of growth at 100 µg/mL in assay [1] came to 64.2%; in assay [2], 0%. In addition, the inhibition of growth at 1000 µg/mL in assay [3] was determined as 5%; in assay [4], 74.2%.

For the compound `Cc1ccc(/C=C2\Oc3cc(O)cc(O)c3C2=O)cc1`, the inhibition of growth at 100 µg/mL was found to be 44.3% in assay [1] and 5% in [2]. For the same compound, the inhibition of growth at 1000 µg/mL stood at 44.2% in assay [3] and 78.2% in assay [4].

For the compound `O=C1/C(=C/c2ccc(F)cc2)Oc2cc(O)cc(O)c21`, the inhibition of growth at 100 µg/mL worked out at 39.1% in assay [1] and 5% in [2]. For the same compound, the results for the inhibition of growth at 1000 µg/mL in assay [3] and in [4] were 20% and 42.3%, respectively.

As for `CC(C)(C)c1ccc(/C=C2\Oc3cc(O)cc(O)c3C2=O)cc1`, the inhibition of growth at 100 µg/mL in assay [1] turned out to be 9.5%; in [2] it was 1.5%. Besides, the inhibition of growth at 1000 µg/mL in assay [3] amounted to 39.6%; in assay [4], 87.5%.

In the case of `COc1cc(/C=C2\Oc3cc(O)cc(O)c3C2=O)ccc1O`, the Activity in [6] stood at 0%; in [7], 35.1%; in [8], 100%; in assay [9] it was 82.4%; in assay [10], 100%; in assay [11], 16.9%. Moreover, the Activity in assay [12] came to 14.3%; in [13] it was 94.9%; in assay [14], 100%. For the same compound, the results for the inhibition of growth at 100 µg/mL in assay [1] and in [2] were 63.3% and 9.5%, respectively. In addition, the results for the inhibition of growth at 1000 µg/mL in assay [3] and in assay [4] were 23.3% and 98.4%, respectively.

Take `COc1ccc(/C=C2\Oc3cc(O)cc(O)c3C2=O)cc1`: the inhibition of growth at 100 µg/mL in assay [1] is 63.7%; in assay [2] it was 10%. Also, the inhibition of growth at 1000 µg/mL in [3] was found to be 28.8%; in [4], 90.8%.

For `O=C1/C(=C/c2ccc(O)cc2)Oc2cc(O)cc(O)c21`, the inhibition of growth at 100 µg/mL in assay [1] came to 55.2%; in [2] it was 15%. In addition, the inhibition of growth at 1000 µg/mL was found to be 57.9% in assay [3] and 72.1% in [4].

As for `COc1cc(/C=C2\Oc3cc(O)cc(O)c3C2=O)ccc1OCc1ccccc1`, the inhibition of growth at 100 µg/mL in assay [1] turned out to be 46.8%; in [2], 9.7%. Besides, the figures for the inhibition of growth at 1000 µg/mL in assay [3] and in assay [4] were 38.6% and 87.9%, respectively.

On to `COc1cc(/C=C2\Oc3cc(O)cc(O)c3C2=O)cc(OC)c1OCc1ccccc1`, for which the values for the inhibition of growth at 100 µg/mL in assay [1] and in assay [2] were 48.8% and 15.2%, respectively. The inhibition of growth at 1000 µg/mL in assay [3] was 36.9%; in assay [4], 75.9%.

Regarding `COc1cc(OC)c2c(c1)O/C(=C\c1cccc(OC)c1OC)C2=O`, the values for the inhibition of growth at 100 µg/mL in [1] and in assay [2] were 34.7% and 25.5%, respectively. Moreover, the inhibition of growth at 1000 µg/mL in assay [3] was 42.6%; in assay [4], 51.4%.

For the compound `COc1cc(OC)c2c(c1)O/C(=C\c1ccco1)C2=O`, the Activity in assay [6] came to 0%; in assay [7] it was 35%; in assay [10], 100%; in assay [11] it was 23.7%; in [14], 100%. For the same compound, the inhibition of growth at 10 µg/mL in assay [5] was 31.6%. Moreover, the results for the inhibition of growth at 100 µg/mL in assay [1] and in assay [2] were 75.9% and 7.8%, respectively. For the same compound, the figures for the inhibition of growth at 1000 µg/mL in assay [3] and in assay [4] were 42.5% and 94.9%, respectively.

`COc1cc(OC)c2c(c1)O/C(=C\c1ccc(OCc3ccccc3)c(OC)c1)C2=O`: the results for the inhibition of growth at 100 µg/mL in assay [1] and in assay [2] were 54% and 8.4%, respectively. Further, the results for the inhibition of growth at 1000 µg/mL in assay [3] and in assay [4] were 44.4% and 68%, respectively.

For `CCOc1cc(OCC)c2c(c1)O/C(=C\c1ccccc1)C2=O`, the Activity in assay [10] stood at 100%; in assay [11], 17.7%. The results for the inhibition of growth at 100 µg/mL in assay [1] and in assay [2] were 37.5% and 8%, respectively. In addition, the inhibition of growth at 1000 µg/mL is 27.6% in [3] and 71.3% in [4].

Turning to `CCOc1cc(OCC)c2c(c1)O/C(=C\c1ccc(OC)cc1)C2=O`, the inhibition of growth at 100 µg/mL in assay [1] was determined as 0%; in assay [2] it was 10%. The inhibition of growth at 1000 µg/mL in assay [3] was 35%; in assay [4] it was 17.7%.

Consider `COc1cc(/C=C2\Oc3cc(OC(=O)c4ccccc4)cc(OC(=O)c4ccccc4)c3C2=O)cc(OC)c1OCc1ccccc1`, for which the inhibition of growth at 100 µg/mL in [1] is 47.6%; in assay [2], 5%. Moreover, the inhibition of growth at 1000 µg/mL in assay [3] was 19.6%; in [4] it was 77.1%.

For the compound `COc1cc2c(c(OC)c1C)C(=O)/C(=C/c1ccccc1)O2`, the Activity in assay [6] is given as 0%; in assay [7] it was 68.6%; in assay [10], 100%; in assay [11], 19.5%; in assay [14] it was 100%. Further, the inhibition of growth at 100 µg/mL in assay [1] was found to be 30.5%; in assay [2], 15%. Also, the inhibition of growth at 1000 µg/mL in assay [3] was 33.5%; in [4] it was 82.6%.

On to `COc1ccc(/C=C2\Oc3cc(OC)c(C)c(OC)c3C2=O)cc1OC`, for which the inhibition of growth at 100 µg/mL in assay [1] was 40.1%; in [2], 16.8%. Also, the results for the inhibition of growth at 1000 µg/mL in assay [3] and in assay [4] were 51.8% and 83.8%, respectively.

Consider `COc1cc2c(c(OC)c1C)C(=O)/C(=C/c1ccc(F)cc1)O2`, for which the inhibition of growth at 100 µg/mL in assay [1] is 46.6%; in assay [2] it was 0%. Besides, the inhibition of growth at 1000 µg/mL in assay [3] was determined as 15%; in assay [4] it was 59%.

As to `COc1cc2c(c(OC)c1C)C(=O)/C(=C/c1ccc(OCc3ccccc3)cc1)O2`, the inhibition of growth at 100 µg/mL worked out at 14.2% in assay [1] and 2.3% in assay [2]. In addition, the inhibition of growth at 1000 µg/mL in [3] amounted to 40.8%; in assay [4] it was 91.9%.

`CN(C)c1ccc(/C=C2\Oc3cc(O)cc(O)c3C2=O)cc1`: the Activity in assay [6] is 0%; in [7] it was 27.8%; in assay [10] it was 100%; in assay [11] it was 16.9%. Moreover, the inhibition of growth at 100 µg/mL was found to be 54.2% in [1] and 3% in assay [2]. The inhibition of growth at 1000 µg/mL in assay [3] was 46.6%; in assay [4], 78.9%.

Regarding `COc1ccc(/C=C2\Oc3cc(O)cc(O)c3C2=O)cc1OC`, the inhibition of growth at 100 µg/mL in assay [1] was 48%; in assay [2] it was 12.3%. Besides, the inhibition of growth at 1000 µg/mL in assay [3] was determined as 48.1%; in assay [4], 82.6%.

`COc1cc(/C=C2\Oc3cc(O)cc(O)c3C2=O)cc(OC)c1O`: the inhibition of growth at 100 µg/mL came to 0% in assay [1] and 5% in [2]. In addition, the inhibition of growth at 1000 µg/mL in assay [3] is 10%; in [4], 0%.

Take `O=C1/C(=C/c2ccccc2)Oc2cc(O)cc(O)c21`: the Activity is reported as 100% in assay [10], 15.3% in [11] and 100% in [14]. The values for the inhibition of growth at 100 µg/mL in assay [1] and in [2] were 50.1% and 19.9%, respectively. Moreover, the inhibition of growth at 1000 µg/mL in assay [3] stood at 49.3%; in assay [4] it was 96.5%.

Consider `O=C1/C(=C/c2ccc3c(c2)OCO3)Oc2cc(O)cc(O)c21`, for which the inhibition of growth at 100 µg/mL was determined as 0% in assay [1] and 5% in assay [2]. The inhibition of growth at 1000 µg/mL worked out at 10% in [3] and 8.7% in [4].

On to `COc1ccc(/C=C2\Oc3cc(OC)cc(OC)c3C2=O)cc1` [4,4',6-TRIMETHOXY-AURONE], for which the inhibition of growth at 10 µg/mL in assay [5] stood at 63.2%. The inhibition of growth at 100 µg/mL in [1] was 72.3%; in assay [2], 18.6%. In addition, the inhibition of growth at 1000 µg/mL in assay [3] came to 62.8%; in assay [4], 87.8%.
